These are literature values, as cited in patent US4749649A, “Microbial Δ1-dehydrogenation process using a scavenger of toxic oxygen” (The Upjohn Company, priority 1983, dated 1988).

For data set [1] the following is noted: compared with hydrocortisone and cortisone.
The test system of another data set is steroid-1-dehydrogenase. Particulars: Pseudomonas testosteroni; potential toxicity by superoxide and peroxide formation.
The conditions of data set [2]: compared with hydrocortisone and cortisone. The source holds these as a separate data set.

For the molecule `C[C@]12C=CC(=O)C=C1CC[C@@H]1[C@@H]2C(=O)C[C@@]2(C)[C@H]1CC[C@]2(O)C(=O)CO` [prednisone], the drug-induced salt retention result in data set [1] is given as “less drug-induced salt retention”.
For `C[n+]1c2ccccc2nc2ccccc21` [PMS, phenazinemethosulfate], in the data set with steroid-1-dehydrogenase, the “1-dehydrogenase activity in the presence of PMS” value is listed as “essentially unaffected”.
For `C[C@]12C=CC(=O)C=C1CC[C@@H]1[C@@H]2[C@@H](O)C[C@@]2(C)[C@H]1CC[C@]2(O)C(=O)CO` [prednisolone], the drug-induced salt retention entry in data set [1] was “less drug-induced salt retention”. Also, the potency result in data set [2] was “enhanced potency”.
